# Assay results published in US20260262643A1, “HERBICIDAL BENZOXAZINES” (FMC CORPORATION, priority 2022, published 2026).
# How the values were obtained:
# barnyardgrass [1] = experiment: Test C preemergence; assay type: in vivo, Echinochloa crusgalli; details: for Barnyardgrass plant response rating: preemergence; for Plant response rating, Barnyardgrass: Preemergence
# In short: (§1)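 Seeds sown in loam soil–sand blend received a directed preemergence soil spray of test chemical in non-phytotoxic solvent with surfactant; postemergence plants (2–10 cm, one- to two-leaf stage) were sprayed with the same formulation. Greenhouse-held 10 days, then visually rated for injury versus untreated controls, 0 (no effect) to 100 (complete control).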
# blackgrass [2] = experiment: Test C preemergence; assay type: in vivo, Alopecurus myosuroides; details: for Blackgrass plant response rating: preemergence; for Plant response rating, Blackgrass: Preemergence
# In short: as §1
# corn [3] = experiment: Test C preemergence; assay type: in vivo, Zea mays; details: for Corn plant response rating: preemergence; for Plant response rating, Corn: Preemergence
# In short: as §1
# green foxtail [4] = experiment: Test C preemergence; assay type: in vivo, Setaria viridis; details: for Foxtail, Green plant response rating: preemergence; for Plant response rating, Foxtail, Green: Preemergence
# In short: as §1
# kochia [5] = experiment: Test C preemergence; assay type: in vivo, Bassia scoparia; details: for Kochia plant response rating: preemergence; for Plant response rating, Kochia: Preemergence
# In short: as §1
# oat, wild [6] = experiment: Test C preemergence; assay type: in vivo, Avena fatua; details: for Oat, Wild plant response rating: preemergence; for Plant response rating, Oat, Wild: Preemergence
# In short: as §1
# pigweed, palmer [7] = experiment: Test C preemergence; assay type: in vivo, Amaranthus palmeri; details: for Pigweed, Palmer plant response rating: preemergence; for Plant response rating, Pigweed, Palmer: Preemergence
# In short: as §1
# ragweed [8] = experiment: Test C preemergence; assay type: in vivo, Ambrosia artemisiifolia; details: for Ragweed plant response rating: preemergence; for Plant response rating, Ragweed: Preemergence
# In short: as §1
# ryegrass, Italian [9] = experiment: Test C preemergence; assay type: in vivo, Lolium multiflorum; details: for Ryegrass, Italian plant response rating: preemergence; for Plant response rating, Ryegrass, Italian: Preemergence
# In short: as §1
# soybean [10] = experiment: Test C preemergence; assay type: in vivo, Glycine max; details: for Soybean plant response rating: preemergence; for Plant response rating, Soybean: Preemergence
# In short: as §1
# wheat [11] = experiment: Test C preemergence; assay type: in vivo, Triticum aestivum; details: for Wheat plant response rating: preemergence; for Plant response rating, Wheat: Preemergence
# In short: as §1
# barnyardgrass [12] = experiment: Test C postemergence; assay type: in vivo, Echinochloa crusgalli; details: 10 days
# In short: as §1
# blackgrass [13] = experiment: Test C postemergence; assay type: in vivo, Alopecurus myosuroides; details: 10 days
# In short: as §1
# corn [14] = experiment: Test C postemergence; assay type: in vivo, Zea mays; details: 10 days
# In short: as §1
# green foxtail [15] = experiment: Test C postemergence; assay type: in vivo, Setaria viridis; details: 10 days
# In short: as §1
# kochia [16] = experiment: Test C postemergence; assay type: in vivo, Bassia scoparia; details: 10 days
# In short: as §1
# oat, wild [17] = experiment: Test C postemergence; assay type: in vivo, Avena fatua; details: 10 days
# In short: as §1
# pigweed, palmer [18] = experiment: Test C postemergence; assay type: in vivo, Amaranthus palmeri; details: 10 days
# In short: as §1
# ragweed [19] = experiment: Test C postemergence; assay type: in vivo, Ambrosia artemisiifolia; details: 10 days
# In short: as §1
# ryegrass, Italian [20] = experiment: Test C postemergence; assay type: in vivo, Lolium multiflorum; details: 10 days
# In short: as §1
# soybean [21] = experiment: Test C postemergence; assay type: in vivo, Glycine max; details: 10 days
# In short: as §1
# wheat [22] = experiment: Test C postemergence; assay type: in vivo, Triticum aestivum; details: 10 days
# In short: as §1
# galium = experiment: Test C postemergence; assay type: in vivo, Galium aparine; details: 10 days
# In short: as §1
# horseweed = experiment: Test C postemergence; assay type: in vivo, Erigeron canadensis; details: 10 days
# In short: as §1
# barnyardgrass [23] = experiment: Test D flooded paddy test; assay type: in vivo, Echinochloa crus-galli; details: 250 g ai/ha, applied to paddy water, visual rating after 13 to 14 days, scale 0 to 100 (0 no effect, 100 complete control)
# In short: (§2)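 Visual ratings from 0, meaning no effect, to 100, meaning complete control, were assigned against untreated controls 13 to 14 days after compounds were added to the floodwater of pots kept 3 cm deep, with plants at the 2-leaf stage.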
# ducksalad = experiment: Test D flooded paddy test; assay type: in vivo, Heteranthera limosa; details: 250 g ai/ha, applied to paddy water, visual rating after 13 to 14 days, scale 0 to 100 (0 no effect, 100 complete control)
# In short: as §2
# rice = experiment: Test D flooded paddy test; assay type: in vivo, Oryza sativa; details: 250 g ai/ha, applied to paddy water, visual rating after 13 to 14 days, scale 0 to 100 (0 no effect, 100 complete control)
# In short: as §2
# sedge, umbrella = experiment: Test D flooded paddy test; assay type: in vivo, Cyperus difformis; details: 250 g ai/ha, applied to paddy water, visual rating after 13 to 14 days, scale 0 to 100 (0 no effect, 100 complete control)
# In short: as §2
# [24] = 500 g ai/ha, 0 to 100 scale (0 no effect, 100 complete control)
# [25] = 125 g ai/ha, 0 to 100 scale, 0 no effect, 100 complete control
# [26] = 500 g ai/ha, postemergence, 0 to 100 scale (0 no effect, 100 complete control)
# [27] = Postemergence, 125 g ai/ha, 0 to 100 scale (0 no effect, 100 complete control)
# [28] = 500 g ai/ha, visual rating after 10 days, 0 to 100 scale (0 no effect, 100 complete control)
# [29] = Test C, 125 g ai/ha, 0 to 100 scale (0 no effect, 100 complete control)
# [30] = 125 g ai/ha, postemergence, 0 to 100 scale, 0 no effect, 100 complete control
# [31] = Postemergence, 500 g ai/ha, visual 0 to 100 scale (0 no effect, 100 complete control)
smiles,measurement,setting,value
CC(=O)N(C)c1ncn(-c2cccc(C(=O)N3C[C@H](C)Oc4c(C)cccc43)c2)n1 [Compound 336],Barnyardgrass plant response rating,barnyardgrass [1]; [24],100
same,"Plant response rating, Barnyardgrass",barnyardgrass [1]; [25],20
same,Blackgrass plant response rating,blackgrass [2]; [24],40
same,"Plant response rating, Blackgrass",blackgrass [2]; [25],30
same,Corn plant response rating,corn [3]; [24],20
same,"Plant response rating, Corn",corn [3]; [25],0
same,"Foxtail, Green plant response rating",green foxtail [4]; [24],100
same,"Plant response rating, Foxtail, Green",green foxtail [4]; [25],80
same,Kochia plant response rating,kochia [5]; [24],90
same,"Plant response rating, Kochia",kochia [5]; [25],0
same,"Oat, Wild plant response rating","oat, wild [6]; [24]",30
same,"Plant response rating, Oat, Wild","oat, wild [6]; [25]",0
same,"Pigweed, Palmer plant response rating","pigweed, palmer [7]; [24]",90
same,"Plant response rating, Pigweed, Palmer","pigweed, palmer [7]; [25]",10
same,Ragweed plant response rating,ragweed [8]; [24],0
same,"Plant response rating, Ragweed",ragweed [8]; [25],0
same,"Ryegrass, Italian plant response rating","ryegrass, Italian [9]; [24]",90
same,"Plant response rating, Ryegrass, Italian","ryegrass, Italian [9]; [25]",70
same,Soybean plant response rating,soybean [10]; [24],30
same,"Plant response rating, Soybean",soybean [10]; [25],0
same,Wheat plant response rating,wheat [11]; [24],40
same,"Plant response rating, Wheat",wheat [11]; [25],0
same,"Plant response rating, Barnyardgrass",barnyardgrass [12]; [26],60
same,"Plant response rating, Barnyardgrass",barnyardgrass [12]; [27],10
same,"Plant response rating, Blackgrass",blackgrass [13]; [26],90
same,"Plant response rating, Blackgrass",blackgrass [13]; [27],30
same,"Plant response rating, Corn",corn [14]; [26],60
same,"Plant response rating, Corn",corn [14]; [27],20
same,"Plant response rating, Foxtail, Green",green foxtail [15]; [26],60
same,"Plant response rating, Foxtail, Green",green foxtail [15]; [27],20
same,"Plant response rating, Kochia",kochia [16]; [26],80
same,"Plant response rating, Kochia",kochia [16]; [27],60
same,"Plant response rating, Oat, Wild","oat, wild [17]; [26]",70
same,"Plant response rating, Oat, Wild","oat, wild [17]; [27]",10
same,"Plant response rating, Pigweed, Palmer","pigweed, palmer [18]; [26]",70
same,"Plant response rating, Pigweed, Palmer","pigweed, palmer [18]; [27]",20
same,"Plant response rating, Ragweed",ragweed [19]; [26],10
same,"Plant response rating, Ragweed",ragweed [19]; [27],20
same,"Plant response rating, Ryegrass, Italian","ryegrass, Italian [20]; [26]",80
same,"Plant response rating, Ryegrass, Italian","ryegrass, Italian [20]; [27]",50
same,"Plant response rating, Soybean",soybean [21]; [26],100
same,"Plant response rating, Soybean",soybean [21]; [27],80
same,"Plant response rating, Wheat",wheat [22]; [26],40
same,"Plant response rating, Wheat",wheat [22]; [27],10
same,"Plant response rating, Galium",galium; [26],90
same,"Plant response rating, Galium",galium; [27],60
same,"Plant response rating, Horseweed",horseweed; [26],0
same,"Plant response rating, Horseweed",horseweed; [27],0
same,"Plant response rating, Barnyardgrass (Flood)",barnyardgrass [23],0
same,"Plant response rating, Ducksalad (Flood)",ducksalad,25
same,"Plant response rating, Rice (Flood)",rice,0
same,"Plant response rating, Sedge, Umbrella (Flood)","sedge, umbrella",0
CC(C)c1ncn(-c2ccc(SC(F)(F)F)c(C(=O)N3C[C@H](C)Oc4c(Cl)cccc43)c2)n1 [Compound 249],"Plant response rating, Barnyardgrass",barnyardgrass [1]; [28],20
same,Barnyardgrass plant response rating,barnyardgrass [1]; [29],20
same,"Plant response rating, Blackgrass",blackgrass [2]; [28],60
same,Blackgrass plant response rating,blackgrass [2]; [29],20
same,"Plant response rating, Corn",corn [3]; [28],0
same,Corn plant response rating,corn [3]; [29],0
same,"Plant response rating, Foxtail, Green",green foxtail [4]; [28],90
same,"Foxtail, Green plant response rating",green foxtail [4]; [29],90
same,"Plant response rating, Kochia",kochia [5]; [28],0
same,Kochia plant response rating,kochia [5]; [29],0
same,"Plant response rating, Oat, Wild","oat, wild [6]; [28]",0
same,"Oat, Wild plant response rating","oat, wild [6]; [29]",0
same,"Plant response rating, Pigweed, Palmer","pigweed, palmer [7]; [28]",30
same,"Pigweed, Palmer plant response rating","pigweed, palmer [7]; [29]",30
same,"Plant response rating, Ragweed",ragweed [8]; [28],0
same,Ragweed plant response rating,ragweed [8]; [29],0
same,"Plant response rating, Ryegrass, Italian","ryegrass, Italian [9]; [28]",60
same,"Ryegrass, Italian plant response rating","ryegrass, Italian [9]; [29]",40
same,"Plant response rating, Soybean",soybean [10]; [28],20
same,Soybean plant response rating,soybean [10]; [29],0
same,"Plant response rating, Wheat",wheat [11]; [28],0
same,Wheat plant response rating,wheat [11]; [29],0
same,"Plant response rating, Barnyardgrass",barnyardgrass [12]; [30],10
same,"Plant response rating, Barnyardgrass",barnyardgrass [12]; [31],10
same,"Plant response rating, Blackgrass",blackgrass [13]; [30],0
same,"Plant response rating, Blackgrass",blackgrass [13]; [31],0
same,"Plant response rating, Corn",corn [14]; [30],0
same,"Plant response rating, Corn",corn [14]; [31],10
same,"Plant response rating, Foxtail, Green",green foxtail [15]; [30],30
same,"Plant response rating, Foxtail, Green",green foxtail [15]; [31],30
same,"Plant response rating, Kochia",kochia [16]; [30],50
same,"Plant response rating, Kochia",kochia [16]; [31],80
same,"Plant response rating, Oat, Wild","oat, wild [17]; [30]",0
same,"Plant response rating, Oat, Wild","oat, wild [17]; [31]",0
same,"Plant response rating, Pigweed, Palmer","pigweed, palmer [18]; [30]",40
same,"Plant response rating, Pigweed, Palmer","pigweed, palmer [18]; [31]",70
same,"Plant response rating, Ragweed",ragweed [19]; [30],0
same,"Plant response rating, Ragweed",ragweed [19]; [31],0
same,"Plant response rating, Ryegrass, Italian","ryegrass, Italian [20]; [30]",0
same,"Plant response rating, Ryegrass, Italian","ryegrass, Italian [20]; [31]",0
same,"Plant response rating, Soybean",soybean [21]; [30],100
same,"Plant response rating, Soybean",soybean [21]; [31],100
same,"Plant response rating, Wheat",wheat [22]; [30],10
same,"Plant response rating, Wheat",wheat [22]; [31],10
same,"Plant response rating, Galium",galium; [30],90
same,"Plant response rating, Horseweed",horseweed; [30],0
same,"Plant response rating, Horseweed",horseweed; [31],0
same,"Plant response rating, Barnyardgrass (Flood)",barnyardgrass [23],0
same,"Plant response rating, Ducksalad (Flood)",ducksalad,0
same,"Plant response rating, Rice (Flood)",rice,0
same,"Plant response rating, Sedge, Umbrella (Flood)","sedge, umbrella",0
